Experimental data as given in patent US11345659B2, “Pipecolic esters for inhibition of the proteasome” (THE BOARD OF REGENTS OF THE UNIVERSY OF TEXAS SYSTEM, priority 2018, dated 2022).

Experiments:
Assay type in all cases: biochemical
[1] = molecular target: T1, 20 S human housekeeping proteasome (Homo sapiens, UniProt P25787+P25789); experiment: ChT-L peptidase activity of 20 S proteasome activated with Rpt5 peptide; details: ChT-L, 20 S activated with Rpt5 peptide; for IC50: Suc-LLVY-AMC substrate, read-out: IC50
T1 construct: purified from erythrocytes; purchased Enzo Life Sciences, Inc. (Farmingdale, N.Y.); host or cells: human erythrocytes
Method: (§1) Human housekeeping 20 S and 26 S and complexes purified from erythrocytes were purchased from Enzo Life Sciences, Inc. (Farmingdale, N.Y.). The 1 mg/ml stock 20 S proteasome was diluted to 0.2 mg/ml working solution in 50 mM Tris/HCl, pH 8 containing 20% glycerol (dilution buffer). For the 26 S proteasome stock, the dilution buffer was supplemented with 2 mM ATP, 1 mM MgCl2, and 1 mM DTT (dithiothreitol). The ChT-L peptidase activity was measured as arbitrary intensity units of fluorescence emitted by 7-amino-4-methylcoumarin (AMC) released from the canonical model peptide substrate succinyl-LeuLeuValTyr-methylcoumarin (SucLLVY-MCA; Bachem Bioscience Inc., Philadelphia, Pa.), used at concentration of 100 μM. Free AMC (Sigma-Aldrich, St. Louis, Mo.) was used as the standard. The Rpt5 C-terminal peptide was synthesized (standard solid-phase peptide chemistry) and purified to at least 98% purity by GenScript (Piscataway, N.J.). The Rpt5 peptide and the peptide substrate were dissolved in dimethylsulfoxide (DMSO) and such stock solutions were stored at −20° C. The total concentration of DMSO in final reaction mixtures never exceeded 3% (vol/vol).
The reaction was carried out in 96-well plates, in 100 μL of reaction mixture, for 1 hour at 37° C. In the case of 20 S proteasome, the reaction mixture consisted of 45 mM Tris/HCl, pH 8, 100 mM KCl with premixed 10 μM Rpt5 peptide and 100 μM Suc-LLVY-MCA, to which 200 ng (nearly […]) of proteasome and desired concentration of tested compounds in 1 μL of DMSO were added. To test the activity of 26 S proteasome under conditions challenging coordination of the three pairs of peptidase active centers, a mixture of three canonical substrates specific for the ChT-L (SucLLVY-MCA), trypsin-like (T-L; BocLRR-MCA) and caspase-like (Casp-L; Z-LLE-MCA) was used with each of the substrates at 33.3 μM (100 μM of the total substrate concentration). The reaction mixture in this case consisted of 50 mM Tris/HCl, pH 8, 20 mM NaCl, premixed with the substrates and 2 mM ATP, to which 200 ng (nearly 0.1 nmol) of the 26 S working solution and desired concentration of tested compounds in 0.5 μL of DMSO were added. The reaction rates were calculated from a linear segment of kinetic curves constructed from measurements in 1-minutes intervals (Fluoroskan Ascent plate reader; Thermo Fisher Scientific Inc., Waltham, Mass.). Reaction rates were calculated using a linear fit executed by Slope Analyzer and Enzyme Kinetics applications launched within Origin Pro 2017 (OriginLab). Specific activity of the control 20 S proteasome activated with the Rpt5 peptide was in the range of 1.4 to 2.3 nanomoles of AMC product released by 1 mg of 20 S per second (1.95±0.24; n=18). Specific activity of the control 26 S proteasome challenged with three substrates reached on average 0.28±0.06 nanomoles of AMC product released by 1 mg of the enzyme per second (n=6). For comparison, degradation of the canonical Suc-LLVY-MCA substrate by the control 26 S proteasome preceded with a rate in the range of 0.6-0.8 nanomoles of AMC released per mg of the enzyme per second. The data are presented as mean±SD or as a representative set from at least 3 independent experiments.
The compounds were evaluated using the 20 S human housekeeping proteasome. It was activated with the Rpt5 derived 10-residue peptide that contains the C-terminal HbYX (hydrophobic-Tyr-any AA) motif activating the proteasome in trans and to some extend mimic the activation by the 19 S regulatory particle (Osmulski and Gaczynska (2013) Molecular pharmacology 84: 104-113; Smith et al. (2006) J. Struct. Biol. 156: 72-83; Smith et al. (2007) Mol. Cell 27: 731-744). Proteolytic activity was monitored over time using a fluorogenic peptide substrate specific for the chymotrypsin-like active center (ChT-L, Suc-LLVY-AMC) in the presence of a concentration range of the inhibitors. […]

26 S proteasome = molecular target: T2, 26 S proteasome (Homo sapiens, UniProt P25787+P25789); experiment: 26 S proteasome challenged with mixture of three substrates (surrogate proteinase assay); details: mixture of ChT-L, T-L and Casp-L substrates, 33.3 μM each; read-out: IC50, 26 S proteasome with substrates for all three peptidases
T2 construct: purified from erythrocytes; purchased Enzo Life Sciences, Inc. (Farmingdale, N.Y.); host or cells: human erythrocytes
Method: as §1
The reaction was carried out in 96-well plates, in 100 μL of reaction mixture, for 1 hour at 37° C. In the case of 20 S proteasome, the reaction mixture consisted of 45 mM Tris/HCl, pH 8, 100 mM KCl with premixed 10 μM Rpt5 peptide and 100 μM Suc-LLVY-MCA, to which 200 ng (nearly […]) of proteasome and desired concentration of tested compounds in 1 μL of DMSO were added. […] The reaction rates were calculated from a linear segment of kinetic curves constructed from measurements in 1-minutes intervals (Fluoroskan Ascent plate reader; Thermo Fisher Scientific Inc., Waltham, Mass.). Reaction rates were calculated using a linear fit executed by Slope Analyzer and Enzyme Kinetics applications launched within Origin Pro 2017 (OriginLab). […]

[2] = molecular target: T3, latent core 20 S proteasome (Homo sapiens, UniProt P25787+P25789); experiment: Competition of compound 3 with tRpt6 peptide, ChT-L activity of latent core; details: 2 μM tRpt6
T3 construct: purified from erythrocytes; purchased Enzo Life Sciences, Inc. (Farmingdale, N.Y.); host or cells: human erythrocytes
Source text: According to the most recent model of the 26 S proteasome dynamic cycle, Rpt6 succeeds the Hb-Y—X containing anchor subunits Rpt5, Rpt3, and Rpt2 in docking into the α face pockets and promoting an intermediate conformation between latent and activated (open gate) proteasomes (Dong et al. ([…]) Nature 565(7737): 49-55). […] For comparison, no competition between tRpt5, expected to occupy the α5/α6 pocket, and compound 3 was detected.
Referring to FIG. 4, the C-terminal peptide derived from Rpt6 subunit compromises inhibition of the ChT-L activity of the latent core by the compound 3; however, only when added to the proteasome prior to the inhibitor. […] 1 μM compound 3 and 2 μM tRpt6 were tested. Mean±SD; n=3 to 6.

Compound	IC50 [1] [µM]	ChT-L inhibitory activity in words [1]	IC50 (26 S proteasome) [µM]	effect of peptide alone on proteasome activity [2]
COc1cc(CCCOC(=O)C2CCCCN2C(=O)OCc2ccccc2)cc(OC)c1OC (racemic) [Compound 2, 1-benzyl 2-(3-(3,4,5-trimethoxyphenyl)propyl)piperidine-1,2-dicarboxylate]	11.5	–	–	–
COc1cc(COC(=O)[C@@H]2CCCCN2C(=O)OCc2ccccc2)cc(OC)c1OC (stereo in doubt) [Compound 8, 1-benzyl 2-(3,4,5-trimethoxybenzyl) piperidine-1,2-dicarboxylate]	19.8	significantly reduced its activity	–	–
COc1cc(CCCOC(=O)[C@@H]2CCCCN2C(=O)OCC(C)C)cc(OC)c1OC [Compound 4, 1-isobutyl 2-(3-(3,4,5-trimethoxyphenyl)propyl) (S)-piperidine-1,2-dicarboxylate]	15.2	–	–	–
COC(=O)N1CCCC[C@H]1C(=O)OCCCc1cc(OC)c(OC)c(OC)c1 [Compound 5, 1-methyl 2-(3-(3,4,5-trimethoxyphenyl)propyl) (S)-piperidine-1,2-dicarboxylate]	> 50	completely abrogated activity	–	–
COc1cc(CCCOC(=O)[C@@H]2CCCN(C(=O)OCc3ccccc3)C2)cc(OC)c1OC [Compound 6, 1-benzyl 3-(3-(3,4,5-trimethoxyphenyl)propyl) (R)-piperidine-1,3-dicarboxylate]	14.7	–	–	–
COc1cc(CCOC(=O)[C@@H]2CCCCN2C(=O)OCc2ccccc2)cc(OC)c1OC [Compound 7, 1-benzyl 2-(3,4,5-trimethoxyphenethyl) (S)-piperidine-1,2-dicarboxylate]	20.1	significantly reduced its activity	–	–
O=C(OCCCc1ccccc1)[C@@H]1CCCCN1C(=O)OCc1ccccc1 [Compound 9, 1-benzyl 2-(3-phenylpropyl) (S)-piperidine-1,2-dicarboxylate]	2.6	–	> 60	–
CCCOC(=O)[C@@H]1CCCCN1C(=O)OCc1ccccc1 [Compound 10, 1-benzyl 2-propyl (S)-piperidine-1,2-dicarboxylate]	> 50	inactive	–	–
O=C(O)[C@@H]1CCCCN1C(=O)OCc1ccccc1 [Compound 11, 1-((benzyloxy)carbonyl) (S)-piperidine-2-carboxylic Acid]	> 50	inactive	–	–

Second part, the compound after the results:

IC50 [1] [µM]	ChT-L inhibitory activity in words [1]	IC50 (26 S proteasome) [µM]	effect of peptide alone on proteasome activity [2]	Compound
23.8	only had modest activity	–	–	COc1cc(CCCOC(=O)[C@@H]2CCCN2C(=O)OCc2ccccc2)cc(OC)c1OC [Compound 12, 1-benzyl 2-(3-(3,4,5-trimethoxyphenyl)propyl) (S)-pyrrolidine-1,2-dicarboxylate]
6.6	–	–	–	O=C(OCCCc1ccccc1)[C@@H]1CCCN1C(=O)OCc1ccccc1 [Compound 13, 1-benzyl 2-(3-phenylpropyl) (S)-pyrrolidine-1,2-dicarboxylate]
19.2	decreased activity	–	–	O=C(OCCc1ccccc1)[C@@H]1CCCN1C(=O)OCc1ccccc1 [Compound 14, 1-benzyl 2-phenethyl (S)-pyrrolidine-1,2-dicarboxylate]
33.5	decreased activity	–	–	O=C(OCc1ccccc1)[C@@H]1CCCN1C(=O)OCc1ccccc1 [Compound 15, Dibenzyl (S)-pyrrolidine-1,2-dicarboxylate]
–	–	–	did not affect the proteasome activity	tRpt6: 10-residue peptide derived from C-terminal fragment of Rpt6 (KNMSIKKLWK) [reference compound]
